Tested on: 521955-158-R2-J5-PDC complex spheroid viability
Assay: Anticancer human tumor 521955-158-R2-J5-PDC patient-derived pancreatic carcinoma cell line growth inhibition [GQUAD]
Conditions: for IC50: curve of first compound; for viability, T/C: stronger effect = lower value
In short: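 Multi-cell-type spheroids of tumor cells with HUVEC and mesenchymal stem cells, treated with drug combinations. Concentrations descend in half-log steps from near clinical Cmax, or from 10 microM where Cmax is unknown; viability read-out.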

[1] = second compound 0.0316 µM, first compound 0.0316 µM
[2] = second compound 0.0316 µM, first compound 0.1 µM
[3] = second compound 0.0316 µM, first compound 0.316 µM
[4] = second compound 0.0316 µM, first compound 1 µM
[5] = second compound 0.0316 µM, first compound 3.16 µM
[6] = second compound 0.0316 µM, first compound 10 µM
[7] = second compound 0.1 µM, first compound 0.0316 µM
[8] = second compound 0.1 µM, first compound 0.1 µM
[9] = second compound 0.1 µM, first compound 0.316 µM
[10] = second compound 0.1 µM, first compound 1 µM
[11] = second compound 0.1 µM, first compound 3.16 µM
[12] = second compound 0.1 µM, first compound 10 µM
[13] = second compound 0.316 µM, first compound 0.0316 µM
[14] = second compound 0.316 µM, first compound 0.1 µM
[15] = second compound 0.316 µM, first compound 0.316 µM
[16] = second compound 0.316 µM, first compound 1 µM
[17] = second compound 0.316 µM, first compound 3.16 µM
[18] = second compound 0.316 µM, first compound 10 µM
[19] = second compound 1 µM, first compound 0.0316 µM
[20] = second compound 1 µM, first compound 0.1 µM
[21] = second compound 1 µM, first compound 0.316 µM
[22] = second compound 1 µM, first compound 1 µM
[23] = second compound 1 µM, first compound 3.16 µM
[24] = second compound 1 µM, first compound 10 µM
[25] = second compound 3.16 µM, first compound 0.0316 µM
[26] = second compound 3.16 µM, first compound 0.1 µM
[27] = second compound 3.16 µM, first compound 0.316 µM
[28] = second compound 3.16 µM, first compound 1 µM
[29] = second compound 3.16 µM, first compound 3.16 µM
[30] = second compound 3.16 µM, first compound 10 µM
[31] = second compound 10 µM, first compound 0.0316 µM
[32] = second compound 10 µM, first compound 0.1 µM
[33] = second compound 10 µM, first compound 0.316 µM
[34] = second compound 10 µM, first compound 1 µM
[35] = second compound 10 µM, first compound 3.16 µM
[36] = second compound 10 µM, first compound 10 µM
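Also: spheroids exposed to agents for one week before reading.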
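For viability, T/C in this document: 100% = DMSO vehicle control viability.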

## Cc1cccc(N(C)C(=O)C2C(O)CCN2c2nc(C)cc(C(F)(F)F)c2C#N)c1 (stereo unspecified) + Cc1[nH]c2ccc(F)cc2c1-c1nc2c3cccnc3c3ncccc3c2[nH]1
Second compound 0.0316 µM
  IC50: > 10 µM
Second compound 0.1 µM
  IC50: > 10 µM
Second compound 0.316 µM
  IC50: > 10 µM
Second compound 1 µM
  IC50: > 10 µM
Second compound 3.16 µM
  IC50: > 10 µM
Second compound 10 µM
  IC50: > 10 µM
[1]
  viability, T/C: 111%
[2]
  viability, T/C: 85.8%
[3]
  viability, T/C: 110%
[4]
  viability, T/C: 107%
[5]
  viability, T/C: 110%
[6]
  viability, T/C: 123%
[7]
  viability, T/C: 92.2%
[8]
  viability, T/C: 109%
[9]
  viability, T/C: 94.7%
[10]
  viability, T/C: 106%
[11]
  viability, T/C: 126%
[12]
  viability, T/C: 120%
[13]
  viability, T/C: 91.1%
[14]
  viability, T/C: 93.5%
[15]
  viability, T/C: 101%
[16]
  viability, T/C: 114%
[17]
  viability, T/C: 112%
[18]
  viability, T/C: 111%
[19]
  viability, T/C: 92.7%
[20]
  viability, T/C: 100%
[21]
  viability, T/C: 108%
[22]
  viability, T/C: 105%
[23]
  viability, T/C: 128%
[24]
  viability, T/C: 115%
[25]
  viability, T/C: 110%
[26]
  viability, T/C: 88.2%
[27]
  viability, T/C: 92.5%
[28]
  viability, T/C: 91.8%
[29]
  viability, T/C: 132%
[30]
  viability, T/C: 120%
[31]
  viability, T/C: 115%
[32]
  viability, T/C: 104%
[33]
  viability, T/C: 104%
[34]
  viability, T/C: 122%
[35]
  viability, T/C: 126%
[36]
  viability, T/C: 113%

## CC(C)n1c(=O)n(C)c2cnc3cc(F)c(-c4ccc(OCCCN5CCCCC5)nc4)cc3c21 + CN(C)c1ccc(Nc2c3ccc(NC(=O)CCN4CCCC4)cc3nc3cc(NC(=O)CCN4CCCC4)ccc23)cc1
Second compound 0.0316 µM
  IC50: > 10 µM
Second compound 0.1 µM
  IC50: > 10 µM
Second compound 0.316 µM
  IC50: > 10 µM
Second compound 1 µM
  IC50: > 10 µM
Second compound 3.16 µM
  IC50: 8.35 µM
Second compound 10 µM
  IC50: 0.288 µM
[1]
  viability, T/C: 117%
[2]
  viability, T/C: 108%
[3]
  viability, T/C: 110%
[4]
  viability, T/C: 93.5%
[5]
  viability, T/C: 115%
[6]
  viability, T/C: 109%
[7]
  viability, T/C: 98.6%
[8]
  viability, T/C: 105%
[9]
  viability, T/C: 101%
[10]
  viability, T/C: 95.3%
[11]
  viability, T/C: 116%
[12]
  viability, T/C: 106%
[13]
  viability, T/C: 101%
[14]
  viability, T/C: 103%
[15]
  viability, T/C: 91%
[16]
  viability, T/C: 107%
[17]
  viability, T/C: 115%
[18]
  viability, T/C: 85.2%
[19]
  viability, T/C: 112%
[20]
  viability, T/C: 90.2%
[21]
  viability, T/C: 77%
[22]
  viability, T/C: 96.8%
[23]
  viability, T/C: 97.5%
[24]
  viability, T/C: 86%
[25]
  viability, T/C: 101%
[26]
  viability, T/C: 81%
[27]
  viability, T/C: 63.6%
[28]
  viability, T/C: 63.7%
[29]
  viability, T/C: 55.1%
[30]
  viability, T/C: 46.7%
[31]
  viability, T/C: 64%
[32]
  viability, T/C: 57%
[33]
  viability, T/C: 51.2%
[34]
  viability, T/C: 34.8%
[35]
  viability, T/C: 22%
[36]
  viability, T/C: 5.89%

## COc1cc(C2c3cc4c(cc3C(OC3OC5COC(C)OC5C(O)C3O)C3COC(=O)C23)OCO4)cc(OC)c1O (stereo unspecified) + Cc1cnc(CNC(=O)c2c(=O)c3ccc(N4CCCN(C)CC4)nc3n3c2sc2ccccc23)cn1
Second compound 0.0316 µM
  IC50: 0.241 µM
Second compound 0.1 µM
  IC50: 0.34 µM
Second compound 0.316 µM
  IC50: < 0.0316 µM
Second compound 1 µM
  IC50: < 0.0316 µM
Second compound 3.16 µM
  IC50: < 0.0316 µM
Second compound 10 µM
  IC50: < 0.0316 µM
[1]
  viability, T/C: 84.4%
[2]
  viability, T/C: 70.8%
[3]
  viability, T/C: 42.8%
[4]
  viability, T/C: 23.2%
[5]
  viability, T/C: 12.1%
[6]
  viability, T/C: 9.69%
[7]
  viability, T/C: 59.2%
[8]
  viability, T/C: 55.3%
[9]
  viability, T/C: 49.3%
[10]
  viability, T/C: 37.8%
[11]
  viability, T/C: 16%
[12]
  viability, T/C: 11%
[13]
  viability, T/C: 45.2%
[14]
  viability, T/C: 42.2%
[15]
  viability, T/C: 36.5%
[16]
  viability, T/C: 19.8%
[17]
  viability, T/C: 14%
[18]
  viability, T/C: 12.1%
[19]
  viability, T/C: 23.2%
[20]
  viability, T/C: 28.4%
[21]
  viability, T/C: 19.2%
[22]
  viability, T/C: 17.4%
[23]
  viability, T/C: 10.3%
[24]
  viability, T/C: 10.2%
[25]
  viability, T/C: 19.2%
[26]
  viability, T/C: 18%
[27]
  viability, T/C: 19.6%
[28]
  viability, T/C: 17%
[29]
  viability, T/C: 6.27%
[30]
  viability, T/C: 8.61%
[31]
  viability, T/C: 15.6%
[32]
  viability, T/C: 17.8%
[33]
  viability, T/C: 18.8%
[34]
  viability, T/C: 16.7%
[35]
  viability, T/C: 10.2%
[36]
  viability, T/C: 8.93%
